Patent US6407094B1, “Glutamate receptor antagonists” (Hoffmann-la Roche Inc., priority 1999, dated 2002)

For `Cc1cc2c(cc1C#Cc1ccccc1)NC(=O)CC(c1cccc(C#N)c1)=N2` [Example 4, 3-(8-Methyl-4-oxo-7-phenylethynyl-4,5-dihydro-3H-benzo[b][1,4]diazepin-2-yl)-benzonitrile], which melting point is on record?
Its melting point is 237 to 239 °C (dec.).

With `CN1CCN(c2cc3c(cc2C#Cc2ccccc2)NC(=O)CC(c2cccc(C#N)c2)=N3)CC1` [Example 5, 3-[8-(4-Methyl-piperazin-1-yl)-4-oxo-7-phenylethynyl-4,5-dihydro-3H-benzo[b][1,4]diazepin-2-yl]-benzonitrile] as the compound, how does the melting point read?
Its melting point is 222 to 224 °C (dec.).

For `N#Cc1cccc(C2=Nc3cc(N4CCS(=O)(=O)CC4)c(C#Cc4ccccc4)cc3NC(=O)C2)c1` [Example 6, 3-[8-(1,1-Dioxo-thiomorpholin-4-yl)-4-oxo-7-phenylethynyl-4,5-dihydro-3H-benzo[b][1,4]diazepin-2-yl]-benzonitrile], which melting point is on record?
Its melting point is > 250 °C (dec.).

Which melting point does the source give for `N#Cc1cccc(C2=Nc3cc(N4CCC5(CC4)OCCO5)c(C#Cc4ccccc4)cc3NC(=O)C2)c1` [Example 9, 3-[8-(1,4-Dioxa-8-aza-spiro[4.5]dec-8-yl)-4-oxo-7-phenylethynyl-4,5-dihydro-3H-benzo[b][1,4]diazepin-2-yl]-benzonitrile] here?
The melting point was 239 to 243 °C (dec.).

With `CN(C)CCSc1cc2c(cc1C#Cc1ccccc1)NC(=O)CC(c1cccc(C#N)c1)=N2` [Example 11, 3-[8-(2-Dimethylamino-ethylsulfanyl)-4-oxo-7-phenylethynyl-4,5-dihydro-3H-benzo[b][1,4]diazepin-2-yl]-benzonitrile] as the compound, how does the melting point read?
The melting point was 197 °C (dec.).

Which melting point does the source give for `N#Cc1cccc(C2=Nc3cc(SCC(=O)O)c(C#Cc4ccccc4)cc3NC(=O)C2)c1` [Example 13, [4-(3-Cyano-phenyl)-2-oxo-8-phenylethynyl-2,3-dihydro-1H-benzo[b][1,4]diazepin-7-ylsulfanyl]-acetic acid] here?
The melting point was 202 °C (dec.).

For `COC(=O)Cc1cc2c(cc1C#Cc1ccccc1)NC(=O)CC(c1cccc(C#N)c1)=N2` [Example 14, [4-(3-Cyano-phenyl)-2-oxo-8-phenylethynyl-2,3-dihydro-1H-benzo[b][1,4]diazepin-7-yl]-acetic acid methyl ester], which melting point is on record?
Its melting point is 236 °C (dec.).

With `COCCOc1cc2c(cc1C#Cc1ccccc1)NC(=O)CC(c1cccc(C#N)c1)=N2` [Example 18, 3-[8-(2-Methoxy-ethoxy)-4-oxo-7-phenylethynyl-4,5-dihydro-3H-benzo[b][1,4]diazepin-2-yl]-benzonitrile] as the compound, how does the melting point read?
The melting point was 174 to 176 °C.

With `COC(=O)c1cc2c(cc1C#Cc1ccccc1)NC(=O)CC(c1cccc(C#N)c1)=N2` [Example 19, 4-(3-Cyano-phenyl)-2-oxo-8-phenylethynyl-2,3-dihydro-1H-benzo[b][1,4]diazepine-7-carboxylic acid methyl ester] as the compound, how does the melting point read?
The melting point was greater than 250 °C.

Which melting point does the source give for `N#Cc1cccc(C2=Nc3cc(OCC(=O)O)c(C#Cc4ccccc4)cc3NC(=O)C2)c1` [Example 22, [4-(3-Cyano-phenyl)-2-oxo-8-phenylethynyl-2,3-dihydro-1H-benzo[b][1,4]diazepin-7-yloxy]-acetic acid] here?
The melting point was 257 °C (dec.).

With `N#Cc1cccc(C2=Nc3cc(OCC(O)CO)c(C#Cc4ccccc4)cc3NC(=O)C2)c1` (stereo not drawn) [Example 24, 3-[8-(2,3-Dihydroxy-propoxy)-4-oxo-7-phenylethynyl-4,5-dihydro-3H-benzo[b][1,4]diazepin-2-yl]-benzonitrile] as the compound, how does the melting point read?
Its melting point is 230 to 234 °C (dec.).

Which melting point does the source give for `CCOCc1cc2c(cc1C#Cc1ccccc1)NC(=O)CC(c1cccc(C#N)c1)=N2` [Example 29, 3-(8-Ethoxymethyl-4-oxo-7-phenylethynyl-4,5-dihydro-3H-benzo [b][1,4]diazepin-2-yl)-benzonitrile] here?
Its melting point is 229 °C.

With `CC(C)(C)C(=O)OCc1cc2c(cc1C#Cc1ccccc1)NC(=O)CC(c1cccc(C#N)c1)=N2` [Example 30, 2,2-Dimethyl-propionic acid 4-(3-cyano-phenyl)-2-oxo-8-phenylethynyl-2,3-dihydro-1H-benzo[b][1,4]diazepin-7-ylmethyl ester] as the compound, how does the melting point read?
Its melting point is 218 °C.

For `N#Cc1cccc(C2=Nc3cc(CO)c(C#Cc4ccccc4)cc3NC(=O)C2)c1` [Example 31, 3-(8-Hydroxymethyl-4-oxo-7-phenylethynyl-4,5-dihydro-3H-benzo[b][1,4]diazepin-2-yl)-benzonitrile], which melting point is on record?
Its melting point is greater than 255 °C.

With `COC1CCN(c2cc3c(cc2C#Cc2ccccc2)NC(=O)CC(c2cccc(-n4ccnc4)c2)=N3)CC1` [Example 33, 4-(3-Imidazol-1-yl-phenyl)-7-(4-methoxy-piperidin-1-yl)-8-phenylethynyl-1,3-dihydro-benzo[b][1,4]diazepin-2-one] as the compound, how does the melting point read?
Its melting point is 222 °C.

With `COC1CCN(c2cc3c(cc2C#Cc2ccccc2)NC(=O)CC(c2cccc(C#N)c2)=N3)CC1` [Example 34, 3-[8-(4-Methoxy-piperidin-1-yl)-4-oxo-7-phenylethynyl-4,5-dihydro-3H-benzo[b][1,4]diazepin-2-yl]-benzonitrile] as the compound, how does the melting point read?
The melting point was 250 to 251 °C.

With `N#CCOc1cc2c(cc1C#Cc1ccccc1)NC(=O)CC(c1cccc(-n3ccnc3)c1)=N2` [Example 35, [4-(3-Imidazol-1-yl-phenyl)-2-oxo-8-phenylethynyl-2,3-dihydro-1H-benzo[b][1,4]diazepin-7-yloxy]-acetonitrile] as the compound, how does the melting point read?
The melting point was 214 °C.

Which melting point does the source give for `N#CCOc1cc2c(cc1C#Cc1ccccc1)NC(=O)CC(c1cccc(C#N)c1)=N2` [Example 36, 3-(8-Cyanomethoxy-4-oxo-7-phenylethynyl-4,5-dihydro-3H-benzo[b][1,4]diazepin-2-yl)-benzonitrile] here?
Its melting point is 212 °C.

With `CN(CCO)c1cc2c(cc1C#Cc1ccc(F)cc1)NC(=O)CC(c1cccc(-n3ccnc3)c1)=N2` [Example 38, 8-(4-Fluoro-phenylethynyl)-7-[(2-hydroxy-ethyl)-methyl-amino]-4-(3-imidazol-1-yl-phenyl)-1,3-dihydro-benzo[b][1,4]diazepin-2-one] as the compound, how does the melting point read?
Its melting point is 217 °C (dec.).

For `O=C1CCN(c2cc3c(cc2C#Cc2ccccc2)NC(=O)CC(c2cccc(-n4ccnc4)c2)=N3)CC1` [Example 39, 4-(3-Imidazol-1-yl-phenyl)-7-(4-oxo-piperidin-1-yl)-8-phenylethynyl-1,3-dihydro-benzo[b][1,4]diazepin-2-one], which melting point is on record?
The melting point was 231 °C (dec.).

With `CC(C)(C)NC(=O)COc1cc2c(cc1C#Cc1ccccc1)NC(=O)CC(c1cccc(C#N)c1)=N2` [Example 40, N-tert.-Butyl-2-[4-(3-cyano-phenyl)-2-oxo-8-phenylethynyl-2,3-dihydro-1H-benzo[b][1,4]diazepin-7-yloxy]-acetamide] as the compound, how does the melting point read?
The melting point was greater than 250 °C.

For `CONC(=O)COc1cc2c(cc1C#Cc1ccccc1)NC(=O)CC(c1cccc(C#N)c1)=N2` [Example 41, 2-[4-(3-Cyano-phenyl)-2-oxo-8-phenylethynyl-2,3-dihydro-1H-benzo[b][1,4]diazepin-7-yloxy]-N-methoxy-acetamide], which melting point is on record?
The melting point was greater than 250 °C.

Which melting point does the source give for `O=C1CC(c2cccc(-n3ccnc3)c2)=Nc2cc(N3CCC(O)CC3)c(-c3ccc(F)cc3)cc2N1` [Example 43, 8-(4-Fluoro-phenyl)-7-(4-hydroxy-piperidin-1-yl)-4-(3-imidazol-1-yl-phenyl)-1,3-dihydro-benzo[b][1,4]diazepin-2-one] here?
Its melting point is 238 to 240 °C.

For `O=C1CC(c2cccc(-n3ccnc3)c2)=Nc2cc(OCCO)c(C#Cc3ccc(F)cc3)cc2N1` [Example 44, 8-(4-Fluoro-phenylethynyl)-7-(2-hydroxy-ethoxy)-4-(3-imidazol-1-yl-phenyl)-1,3-dihydro-benzo[b][1,4]diazepin-2-one], which melting point is on record?
Its melting point is 220 to 222 °C.

With `O=C1CC(c2cccc(-n3ccnc3)c2)=Nc2cc(CO)c(-c3ccc(F)cc3)cc2N1` [Example 46, 8-(4-Fluoro-phenyl)-7-hydroxymethyl-4-(3-imidazol-1-yl-phenyl)-1,3-dihydro-benzo[b][1,4]diazepin-2-one] as the compound, how does the melting point read?
Its melting point is 180 to 195 °C.

With `N#CCOc1cc2c(cc1-c1ccc(F)cc1)NC(=O)CC(c1cccc(-n3ccnc3)c1)=N2` [Example 47, [8-(4-Fluoro-phenyl)-4-(3-imidazol-1-yl-phenyl)-2-oxo-2,3-dihydro-1H-benzo[b][1,4]diazepin-7-yloxy]-acetonitrile] as the compound, how does the melting point read?
The melting point was 164 °C.

For `CN(C)Cc1cc2c(cc1-c1ccc(F)cc1)NC(=O)CC(c1cccc(-n3ccnc3)c1)=N2` [Example 48, 7-Dimethylaminomethyl-8-(4-fluoro-phenyl)-4-(3-imidazol-1-yl-phenyl)-1,3-dihydro-benzo[b][1,4]diazepin-2-one], which melting point is on record?
The melting point was 115 to 140 °C (dec.).

For `CC1(C)OC2CN(c3cc4c(cc3-c3ccc(F)cc3)NC(=O)CC(c3cccc(-n5ccnc5)c3)=N4)CC2O1` (stereo not drawn) [Example 49, 7-(2,2-Dimethyl-tetrahydro-[1,3]dioxolo [4,5-c]pyrrol-5-yl)-8-(4-fluoro-phenyl)-4-(3-imidazol-1-yl-phenyl)-1,3-dihydro-benzo[b][1,4]diazepin-2-one], which melting point is on record?
The melting point was 240 °C (dec.).

With `O=C1CC(c2cccc(-n3ccnc3)c2)=Nc2cc(N3C[C@@H](O)[C@@H](O)C3)c(-c3ccc(F)cc3)cc2N1` [Example 50, 7-(cis-3,4-Dihydroxy-pyrrolidin-1-yl)-8-(4-fluoro-phenyl)-4-(3-imidazol-1-yl-phenyl)-1,3-dihydro-benzo[b][1,4]diazepin-2-one] as the compound, how does the melting point read?
The melting point was 244 °C.

With `COc1cc2c(cc1-c1ccc(F)cc1)NC(=O)CC(c1cccc(-n3ccnc3)c1)=N2` [Example 51, 8-(4-Fluoro-phenyl)-4-(3-imidazol-1-yl-phenyl)-7-methoxy-1,3-dihydro-benzo[b][1,4]diazepin-2-one] as the compound, how does the melting point read?
The melting point was 221 °C (dec.).

With `O=C1CCN(c2cc3c(cc2-c2ccc(F)cc2)NC(=O)CC(c2cccc(-n4ccnc4)c2)=N3)CC1` [Example 52, 8-(4-Fluoro-phenyl)-4-(3-imidazol-1-yl-phenyl)-7-(4-oxo-piperidin-1-yl)-1,3-dihydro-benzo[b][1,4]diazepin-2-one] as the compound, how does the melting point read?
The melting point was 204 °C.

With `Cc1cc2c(cc1-c1ccc(F)cc1)NC(=O)CC(c1cccc(-n3ccnc3)c1)=N2` [Example 53, 8-(4-Fluoro-phenyl)-4-(3-imidazol-1-yl-phenyl)-7-methyl-1,3-dihydro-benzo[b][1,4]diazepin-2-one] as the compound, how does the melting point read?
Its melting point is 196 °C.

Which melting point does the source give for `O=C1CC(c2cccc(-n3ccnc3)c2)=Nc2cc(Cl)c(-c3ccc(F)cc3)cc2N1` [Example 56, 7-Chloro-8-(4-fluoro-phenyl)-4-(3-imidazol-1-yl-phenyl)-1,3-dihydro-benzo[b][1,4]diazepin-2-one] here?
The melting point was 209 to 211 °C.
